Experimental data reported in patent publication US12213959B2, “Use of 3-O-sulfamoyloxy-7β-methyl-d-homo-6-oxaestra-1,3,5(10),8(9)-tetraen-17a-one to treat breast cancer” (priority 2018, dated 2025).
Where “and” joins values, the source holds several entries; their conditions need not be identical. Equal values may be shown once.

What was measured:
[1] = Acute oral toxicity, OECD 423 test; format: in vivo; settings: for Body weight of individual mice: in g (unit assumed)
Experimental: 12 female mice were used in the experiment.
The dosage form for the administration was prepared ex tempore.
No deaths were detected either.
Further the observations were made once per day.
The medicament was administered in 2 steps with a break of 3 hours in a volume of 0.1 ml per 10 g of a body weight per step at the concentration of […], because the suspension in oil is thicker at higher concentrations and precludes the medicament to be administered through a gavage. […] Regardless of the group the width of the palpebral fissure of the animals was almost unchanged during the entire observation period. No pathological discharges from the eyes were detected. The nose was pink, moderately moist without pathological discharges. The fur of all mice was neat and shiny without bald spots. A 1% decrease of the animals body weight was registered on Day 2 and a 6% weight decrease on Day 7 from the initial weight (Table 3).

[2] = Body weight and tolerability during the antitumour study
Experimental: The study medicament was administered i.g. using a metal atraumatic gavage (with the procedure corresponds to the oral route of administration in clinical settings). […] Ex tempore solutions of the medicament for administration were prepared in olive oil (refined olive oil supplemented with unrefined extra virgin olive oil available under Global Village “Clasico” trademark, lot L:183351116, expiry date 26.04.2020, BAIEO, Spain). The administered volume was 0.1 ml per 10 g of a mouse body weight (0.2 ml of a ready-to-use formulation for a mouse of 20 g). The medicament administration was started 24 hours after the randomization. Duration of the administration course was 27-28 days.
This dose corresponds to a human daily dose of 20 mg/kg.
The evaluation criteria included the clinical observation data, animals body weights, time of death (if applicable), tumor growth over time, pathomorphological examination data (verification of a neoplasm during autopsy, assessment of toxic effects by macroscopic presentation of changes in the internal organs).
The animals body weights were recorded before the first administration of the medicaments and then twice per week using a verified high-speed electronic laboratory balance Ohaus Scout Pro (USA) with a maximum load of 2000 g and a measurement pitch of 0.1 g.

[3] = system: MDA-MB-231 cell line of triple negative breast cancer; assay: Cell growth inhibition on MDA-MB-231; format: cell-based; settings: Homo sapiens
[4] = system: inoculated human tumour of triple-negative breast cancer; assay: Animal models with inoculated human triple-negative breast cancer tumour; settings: in vivo
[5] = system: Normal human dermal fibroblasts (HDF); assay: Proliferative activity of normal human skin fibroblasts (negative control); format: cell-based; settings: 20 μg/ml
Experimental: The study analysis was carried out on an passaged MCF-7 human cells culture culture (breast adenocarcinoma). Normal human dermal fibroblasts (HDF) of early passages were used as a negative control.
The cells were cultivated in Carrel vials in DMEM/F12 medium (Biolot) with 1.0% of antibiotic-free fetal bovine embryonic serum (Biolot) added in the 5% CO2 atmosphere, at 37° C.
The cells were seeded on Carrel vials at 50×10^4 cells per flask. To study the proliferative activity of the cells under conditions of sulfatase inhibition, 24 hours after seeding the culture medium […], and then these tumor cell lines were incubated for various periods of time (24 to 72 hrs). The inhibitor was dissolved in DMSO. […] To exclude the cytotoxic effect of DMSO, a control sample comprising DMSO without sulfatase inhibitor was prepared.
To exclude nonspecific detrimental effects of the compounds, normal human skin fibroblasts were used. Then the cells were detached with the versene-trypsin solution (Biolot), plated onto Carrel vials containing a fresh complete culture medium. The cells were counted when untreated control cells reached the maximum cell density per unit of surface area of a culture flask (monolayer), and their number was set as 100%. The proliferative activity of all of the studied cell cultures exposed to sulfatase inhibitors was determined in triplicate.

[6] = 300 mg/kg, Day 1 (before administration)
[7] = 2000 mg/kg, Day 1 (before administration)

**Q.** Which results are given for `C[C@H]1Oc2cc(OS(N)(=O)=O)ccc2C2=C1[C@@H]1CCCC(=O)[C@@]1(C)CC2` [medicament, 3-O-sulfamoyloxy-7β-methyl-O-homo-6-oxaestra-1,3,5(10),8(9)-tetraen]?
**A.** visual signs of intoxication ([1]; 300 mg/kg i.g., entire observation period): None of the animals exhibited visual signs of intoxication; Average body weight [1, 6]: 27.4 g; Body weight of individual mice [1, 6]: 26.4 and 29.6 and 26.0 and 27.0 and 28.0 and 27.5; Average body weight ([1]; 300 mg/kg, Day 2): 27.1 g; Average body weight, % from baseline ([1]; 300 mg/kg, Day 2): −1%; average body weight decrease ([1]; 300 mg/kg, Day 2): 1%; Body weight of individual mice ([1]; 300 mg/kg, Day 2): 26.8 and 24.2 and 26.5 and 25.2 and 27.3 and 27.6; Average body weight ([1]; 300 mg/kg, Day 7): 27.6 g; Average body weight, % from baseline ([1]; 300 mg/kg, Day 7): 1%; Body weight of individual mice ([1]; 300 mg/kg, Day 7): 27.0 and 29.4 and 27.4 and 25.6 and 28.2 and 28.0; Average body weight ([1]; 300 mg/kg, Day 14): 28.1 g; Average body weight, % from baseline ([1]; 300 mg/kg, Day 14): 2%; Body weight of individual mice ([1]; 300 mg/kg, Day 14): 27.0 and 29.8 and 29.3 and 26.0 and 27.9 and 28.4; clinical signs of intoxication ([1]; 2000 mg/kg i.g.): No clinical signs of intoxication were observed; Average body weight [1, 7]: 26.2 g; Body weight of individual mice [1, 7]: 28.4 and 25.0 and 26.6 and 24.0 and 26.7 and 26.4; Average body weight ([1]; 2000 mg/kg, Day 2): 26.1 g; Average body weight, % from baseline ([1]; 2000 mg/kg, Day 2): −1%; decrease of body weight from the initial weight ([1]; 2000 mg/kg, Day 2): 1%; Body weight of individual mice ([1]; 2000 mg/kg, Day 2): 27.9 and 25.5 and 26.5 and 25.2 and 27.3 and 27.0; Average body weight ([1]; 2000 mg/kg, Day 7): 24.7 g; Average body weight, % from baseline ([1]; 2000 mg/kg, Day 7): −6%; decrease of body weight from the initial weight ([1]; 2000 mg/kg, Day 7): 6%; Body weight of individual mice ([1]; 2000 mg/kg, Day 7): 24.7 and 24.5 and 25.1 and 25.6 and 28.2 and 25.7; Average body weight ([1]; 2000 mg/kg, Day 14): 26.3 g; Body weight of individual mice ([1]; 2000 mg/kg, Day 14): 28.3 and 24.9 and 26.4 and 26.0 and 27.9 and 27.0; macroscopic changes of internal organs at autopsy ([1]; Day 15): no changes of the internal organs were detected; hazard category ([1]; OECD 423): 5th or unclassified category and 5th or non-classified category; hazard category ([1]; OECD 423, listed as anti-cancer agent): 5th hazard category; LD50 at 14 days ([1]; female, FVB transgenic for HER-2/neu, mouse, in vivo, po, oral (i.g.), mice, OECD 423): ≥ 5000 mg/kg; LD50 ([1]; oral (i.g.), mice, OECD 423, listed as anti-cancer agent): > 5000 mg/kg; signs of toxic damage to the internal organs at autopsy ([2]; end of the experiment): no specific signs of toxic damage to the internal organs; clinical signs of toxicity ([2]; mouse, in vivo): no clinical signs of toxicity being observed; IC50 [3]: 4.8 µM; action compared with Tamoxifen and Letrozole [4]: better action than that of the clinically used Tamoxifen and an aromatase inhibitor Letrozole; growth of human skin fibroblasts [5]: does not influence the growth
